Results on one compound are retold here after PMC12162873, “Modulating phosphatase DUSP22 with BML-260 ameliorates skeletal muscle wasting via Akt independent JNK-FOXO3a repression” (EMBO Molecular Medicine, 2025).

One assay concerns C2C12 myotubes. Kind of assay: Western blotting of C2C12 myotubes. Format: cell-based, mouse. How it is done:
C2C12 murine skeletal muscle myoblasts were purchased from Koram Biotech Corp. (Seoul, Republic of Korea). Prior to experiments, mycoplasma contamination was eliminated using the MycoXpert Mycoplasma Removal Reagent (MYX-B, CAPRICORN) following the manufacturer’s protocol. To ensure complete removal, all cells were passaged three times after treatment before being used in subsequent experiments. No STR profiling was recently undertaken. Myoblasts were cultured in growth media (GM), containing Dulbecco’s modified Eagle’s medium (DMEM), 10% fetal bovine serum, and 1% penicillin and streptomycin (PenStrep). C2C12 myoblasts were differentiated into myotubes at more than 80% confluence by culture in differentiation media (DM), containing DMEM supplemented with 2% horse serum and PenStrep, for 96 h. To induce atrophy, the myotubes were treated with DM plus 10 μM Dex for 24 h. BML-260 and SP600125 were purchased from Santa Cruz Biotechnology, TX, USA (cat. no. sc-223822 and sc-200635).
Western blotting was carried out using the previously published protocol (Lee et al, [2020]). The NIH imaging software Image J 64 was used for densitometry analysis of the gel bands. The primary and secondary antibodies used in this study are shown in the reagent and tools table. Chemiluminescence was used to detect the secondary antibody. […]
Background: In western blotting, separated proteins are transferred to a membrane and probed.

Assay [1] deals with TA muscle of C57BL/6 mice. The assay can be described thus: Whole genome RNA-Seq of TA muscle of geriatric mice. The conditions noted are these: 5 mg/kg IP every 24 h for 4 weeks. Format: in vivo, mouse. The source says:
Figure 8 Whole genome RNA Seq analysis of DUSP22 pharmacological targeting in geriatric mouse TA muscle. (A) Principal component analysis of gene expression variance in the vehicle treated (Con) and BML-260 treated groups (n = 3). (B) Volcano plot of differentially expressed genes. Selected genes linked to FOXO3a signaling are indicated. (C) Expression analysis of genes related to FOXO3a signaling measured by overall TPM fold change. The control was set as the baseline value of 1. A value of 2 would indicate a 2-fold increase, and 0.5 would indicates a 2-fold decrease. (D) Expression of selected genes linked to FOXO3a signaling as normalized counts from the raw read. (E) Expression of the exercise-induced myokine musclin (Ostn). (F) Gene ontology (GO) analysis of the […] muscle cell differentiation and muscle fiber development. Also shown are Six1 and Six4 (which specify fast twitch myofiber development), Ostn and fast myosin (MYH4; the predominant myosin type in the fast-twitch TA muscle). Box plots represent the distribution of Fbxo32, Trim63, Fbxo30, Gadd45a, Ctsl, Bnip3, Ostn expression levels. The center line indicates the median (50th percentile, Q2), representing the middle value of the dataset. The box bounds correspond to the interquartile range (IQR), extending from the 25th percentile (Q1, lower bound) to the 75th percentile (Q3, upper bound). Whiskers extend to the smallest and largest values within 1.5 × IQR from Q1 and Q3, representing the minimum (lower whisker) and maximum (upper whisker) values within this range. […] Error bars represent the standard error of the mean (SEM). Source data are available online for this figure.
RNA samples were harvested from the TA muscles of 24–26-month-old male C57BL/6 mice treated as follows: (1) vehicle alone (5% DMSO + 5% tween 80) and (2) 5 mg/kg BML-260. Mice were treated by IP delivery every 24 h for 4 weeks (n = 3 per group). RNA-Seq was provided by Macrogen, Republic of Korea. Prior to the commencement of sequencing, QC was carried out using FastQC v0.11.7 (http://www.bioinformatics.babraham.ac.uk/projects/fastqc/). Illumina paired ends or single ends in the sequenced samples were trimmed using Trimmomatic 0.38 with various parameters (http://www.usadellab.org/cms/?page=trimmomatic). The sequences of the samples were mapped and analyzed using HISAT2 version 2.1,0, Bowtie2 2.3.4.1 (https://ccb.jhu.edu/software/hisat2/index.shtml). Potential transcripts and multiple splice variants were assembled using StringTie version 2.1.3b (https://ccb.jhu.edu/software/stringtie/). The normalized sample counts were generated using DESeq2, which was also used for normalization, visualization, and differential analysis. PCA was performed using normalized sample counts. The “apeglm” type was used to calculate shrink log2 fold changes.

As to `O=C(O)c1ccc(N2C(=O)C(=Cc3ccccc3)SC2=S)cc1` (stereo in doubt) [BML-260], in the assay with C2C12 myotubes (Dex-treated myotubes), the “atrogin-1, MuRF-1 and DUSP22 levels, western blot” value is “reduced”. The Akt activity result in the assay on C2C12 myotubes (summary statement of the discussion) is given as “not upregulated”. In assay [1], the “expression of Six1 and Six4” value was “upregulated”; the “expression of fast myosin (MYH4)” value is “increased”; the “expression of musclin (OSTN)” value is recorded as “upregulated”; the “genes linked to FOXO3a signaling (including atrogin-1 and MuRF-1)” value is given as “downregulated”. Also, the “genes linked to the PI3K-Akt pathway” value in assay [1] is “downregulated”. Besides, the “number of differentially expressed genes (DEGs)” value in assay [1] (versus vehicle) worked out at 350.
